Assay results from patent US6369101B1, “Therapeutic method to treat herpes virus infection” (Regents of the University of Minnesota, priority 1999, dated 2002).
≈ marks a conversion by molar mass, not a printed value.

Experiments:
HSV-2 strain MS = test: CPE inhibition assay, HSV-2 MS in human foreskin fibroblast cells; type: cell-based, herpes simplex virus type 2; conditions: for EC50 HSV-2 MS: CPE inhibition in HFF cells; as to Qualitative CPE at 2.0 ml dose HSV-2 MS: key: +++ = Complete cytopathic effect; ++ = Moderate cytopathic effect; + = Minimum cytopathic effect; − = No cytopathic effect
HSV-1 strain E-377 = test: CPE inhibition assay, HSV-1 E377 in human foreskin fibroblast cells; type: cell-based, herpes simplex virus type 1; conditions: for EC50 HSV-1 E377: CPE inhibition in HFF cells; as to Qualitative CPE at 2.0 ml dose HSV-1 E377: key: +++ = Complete cytopathic effect; ++ = Moderate cytopathic effect; + = Minimum cytopathic effect; − = No cytopathic effect
[1] = test system: Primary Rabbit Kidney cells; test: Cytotoxic effect in primary rabbit kidney cells; type: cell-based; conditions: for CC50: Primary Rabbit Kidney cell line
Description: (§1) Human laryngeal epithelial carcinoma cells (HEp-2, ATCC, Rockville, Md.) were used for testing of antiviral compounds by cytopathic effect (CPE) inhibition and plaque reduction assay. […] HEp-2, African green monkey kidney cells (Vero, ATCC), HFF and primary rabbit kidney cells were used to determine the cytotoxic effect of compounds of formula I. These cells were propagated in Dulbeco's modified Eagle's medium (DMEM) (Sigma, USA) supplemented with 10% inactivated fetal calf serum (FCS), 25 mM HEPES, 0.2% sodium bicarbonate and 1% penicillin/-streptomycin at 37° C. in the presence of 5% CO2.
(§2) HFF, Vero and HEp-2 cells were seeded in 24-well tissue culture plates at a concentration of […] in DMEM containing 10% FCS and incubated for 24 hours at 37° C. in the presence of 5% CO2. To the monolayer of these cells 0.5, 1.0, 1.5 and 2.0 ml of solution of antiviral compounds were added in the respective wells in duplicate and the cells were then incubated in a 5% CO2 incubator at 37° C. for 72 hours. The cells were observed daily for any change in morphology. […] At the end of this time, the media-drug solution was removed and the cells washed. One ml of 0.25% trypsin was added to each well and incubated until the cells start to come off of the plate. The cells-media mixture was then pipetted up and down several times to resuspend the cells and 0.2 ml of the cell suspension was added to 9.8 ml of trypan blue and cells were counted using hemocytometer. Each sample was counted three times with three replicate wells per sample.

HSV-1 (E377) [2] = test: Cutaneous HSV-1 infection in guinea pigs, topical ointment; type: in vivo, guinea pig; conditions: topical ointment (2% betulin, 2% allobetulin, 5% Acyclovir) twice daily for 3 days
HSV-1 (E377) [3] = test: Cutaneous HSV-1 infection in rats, topical ointment; type: in vivo, rat; conditions: for effect on cutaneous HSV-1 infection (in words): topical ointment (2% betulin, 2% allobetulin, 5% Acyclovir) twice daily for 3 days from 18 hours after infection
HSV-1 (strain F) = test: Plaque reduction assay, HSV-1 strain F in HEp-2 cells; type: cell-based, herpes simplex virus type 1
Description: HEp-2 cells were grown to monolayer in 24 well tissue culture plates in DMEM containing 10% fetal calf serum at 37° C. for 24-36 hours in the presence of 5% CO2. The monolayer of HEp-2 cells was infected with 0.1 ml of HSV- 1 (strain F) or HSV-2 (strain G) containing 100 pfu. The viruses were allowed to adsorb for 1 hour at 37° C. in the presence of 5% CO2. All wells containing virus infected cells except virus control were overlaid with 0.9 ml of DMEM and 1 ml of test compound. The virus control and cell control received DMEM only. All microtiter plates were incubated at 37° C. in the presence of 5% CO2 and observed twice daily for 72 hours for viral CPE. At the end of the experiment, plates were stained with 0.1% crystal violet and the results were quantified by counting plaque forming units.

Vero cells = test: Cytotoxic effect in Vero cell line; type: cell-based, African green monkey; conditions: Vero cell line
Description: as §1, §2

[4] = HFF cells, solution conc. per compound (ng/ml) (Acyclovir 250)

| Compound | EC50 HSV-2 MS (HSV-2 strain MS) [µg/mL] | anti HSV-2 activity (in words) (HSV-2 strain MS; HFF cells, HSV-2) | Qualitative CPE at 2.0 ml dose HSV-2 MS (HSV-2 strain MS; [4]) | EC50 HSV-1 E377 (HSV-1 strain E-377) [µg/mL] | anti HSV-1 activity (in words) (HSV-1 strain E-377; HFF cells, HSV-1 (E377)) | Qualitative CPE at 2.0 ml dose HSV-1 E377 (HSV-1 strain E-377; [4]) | CC50 [1] [µg/mL] | cytotoxicity (in words) ([1]; primary rabbit kidney cells) | effect on cutaneous HSV-1 infection (in words) (HSV-1 (E377) [2]) | number of typical HSV lesions (HSV-1 (E377) [3]; HSV-1, by the 4th to 8th days of infection, 2% ointment twice daily for 3 days) | effect on cutaneous HSV-1 infection (in words) (HSV-1 (E377) [3]) | Plaque Reduction Assay Average pfu/10^5 Cells HSV-1 Strain F (HSV-1 (strain F); conc. per compound as in column Conc. (ng/ml), HSV-1 virus control 5) [pfu/10^5 Cells] | Plaque Reduction Assay Average pfu/10^5 Cells HSV-1 Strain F (HSV-1 (strain F); conc. per compound as in column Conc. (ng/ml), HSV-1 virus control 5, listed as betulin) | CC50 (Vero cells) [µg/mL] | Qualitative CPE at 2.0 ml dose HSV-2 MS (HSV-2 strain MS; HFF cells, Conc. 12500 ng/ml) | Qualitative CPE at 2.0 ml dose HSV-1 E377 (HSV-1 strain E-377; HFF cells, Conc. 12500 ng/ml) | Plaque Reduction Assay Average pfu/10^5 Cells HSV-1 Strain F (HSV-1 (strain F); Conc. 12500 ng/ml, HSV-1 virus control 5) [pfu/10^5 Cells] | Plaque Reduction Assay Average pfu/10^5 Cells HSV-1 Strain F (HSV-1 (strain F); Conc. 12500 ng/ml, HSV-1 virus control 5, listed as Acyclovir®) |
| --- | --- | --- | --- | --- | --- | --- | --- | --- | --- | --- | --- | --- | --- | --- | --- | --- | --- | --- |
| C=C(C)[C@@H]1CC[C@]2(CO)CC[C@]3(C)[C@H](CC[C@@H]4[C@@]5(C)CC[C@H](O)C(C)(C)[C@@H]5CC[C@]43C)[C@@H]12 [Betulin, lup-20(29)-ene-3β, 28-diol, reference compound] | ~0.125 (≈ 0.282 µM) | significant anti HSV-2 activity | + | 0.25 (≈ 0.565 µM) | significant anti-HSV-1 activity | +++ | >0.25 | No cytotoxicity | diminished the development of the clinical infectious process | decreased rapidly | diminished the signs of the infectious process | 0 | no plaque | 0.125 (≈ 0.282 µM) |  |  |  |  |
| acycloguanosine [Acyclovir, reference compound] | 6 |  | +++ | 1.6 |  | +++ | >0.25 |  | diminished the development of the clinical infectious process |  | same healing response |  |  | 0.25 | + | + | 0 | no plaque |
